In a melting point compilation (Tetko et al.; mined from patent text by program, amines drawn as free bases though some values may be those of a salt):

First: COc1ccccc1N1CCN(CCn2cnc3sc4c(c3c2=O)CCN(C(C)=O)C4)CC1
Second: CC(C)(C)Cn1c(=O)c(C#N)c(N2CCN(C(=O)c3cccs3)CC2)c2cccnc21
The melting point of the first is lower: 170 to 172 °C for the first, 232 °C for the second.

First: CNCC(O)C1=CC2(CCCC2)c2ccccc21 (centres undefined)
Second: CC1CCCC(C)(C)C1CS(=O)(=O)c1ccccc1 (centres undefined)
The melting point of the first is higher: 75 to 77 °C for the first, 73 °C for the second.

First: COc1cc2c(cc1OC)CN(CCCCOc1ccc(NC(=O)c3cnc4ccccc4n3)cc1)CC2
Second: COc1ccc(C(F)(F)F)cc1-c1ccc(S(=O)(=O)N2c3ccccc3CC2C(=O)NCCOc2ccc(CC(=O)O)cc2)cc1 (centres undefined)
The melting point of the first is higher: 141 °C for the first, 85 to 88 °C for the second.

Compared with `NCc1nnc2n1-c1ccc(Cl)cc1C(c1ccccc1)=NC2`, `COCCOc1nc2cc(-c3ccc(Cl)cc3)nnc2c2ccccc12` is lower in melting point: 168 to 172 °C for the first, 148 to 150 °C for the second.

First: O=C(O)Cc1c(Oc2ccc3c(c2)OCO3)cccc1Oc1ccc2c(c1)OCO2
Second: O=C1N(Cc2noc(C3CC3)n2)c2ccccc2C12COc1cc3c(cc12)OCO3 (centres undefined)
The melting point of the first is higher: 176 to 177 °C for the first, 136 to 137 °C for the second.

Compared with `N#CC1=CCN(c2ncccc2F)CC1`, `O=C1CCc2ncc3cc(F)ccc3c2N1` is higher in melting point: 76 to 77 °C for the first, 266 to 267 °C for the second.

Compared with `CC1CC(=O)NN=C1c1ccc(NC(=O)Oc2ccc([N+](=O)[O-])cc2)cc1` (centres undefined), `COc1ccc(NC(=O)NCc2ccc3c(c2)CN(C2CCC(=O)NC2=O)C3=O)cc1` (centres undefined) is higher in melting point: 177 to 178 °C for the first, 255 to 257 °C for the second.

Compared with `CC1(C)CC(=O)C(S(=O)Cc2ccc(F)cc2)=C(O)C1` (centres undefined), `CC1(C)OC(=O)c2ccc(CO)cc21` is lower in melting point: 122 to 125 °C for the first, 59 to 63 °C for the second.

Compared with `C#Cc1ccc2sccc2c1`, `COc1ccc(C(=O)c2sccc2O)cc1` is higher in melting point: 55 °C for the first, 86 to 87 °C for the second.

First: CC(C(=O)O)c1ccc(N=c2sccn2C)c(Cl)c1 (centres undefined)
Second: O=C(Nc1ccccc1)N1Cc2sccc2C(O)C1 (centres undefined)
The melting point of the first is lower: 132 to 133 °C for the first, 200 °C for the second.

First: O=C1CN2CCC1CC2
Second: Cc1cccc2c(=O)[nH]c(CCN3CCCC(O)C3)cc12 (centres undefined)
The melting point of the first is lower: 58 °C for the first, 180 to 181 °C for the second.

First: CC(=CCP(=O)(O)O)C(N)C(=O)O (centres undefined)
Second: O=C(O)CNC(=O)C(Cc1ccccc1)P(=O)(O)O (centres undefined)
The melting point of the first is lower: 168 °C for the first, 250 °C for the second.

First: COc1ccc(C=CC(=O)c2ccc(O)cc2)cc1OC
Second: COc1cc(OC)nc(-c2ccc(C)cc2)n1
The melting point of the first is higher: 193 to 198 °C for the first, 61 to 62 °C for the second.

First: CC(C)(C)OC(=O)N1C[C@@H]2OCc3cnnn3[C@H]2C1
Second: CC(C)(C)OC(=O)N1CCN(c2c(F)cc(NC(=O)OCc3ccccc3)cc2F)CC1
The melting point of the first is lower: 155 to 157 °C for the first, 171 to 172 °C for the second.

First: O=C(O)C1=CCC2CC(=O)N12 (centres undefined)
Second: N=C(N)Nc1cc(C(=O)O)ccc1N1C(=O)CCC1CO (centres undefined)
The melting point of the first is lower: 172 to 174 °C for the first, 253 to 257 °C for the second.

Compared with `O=Cc1cc(Cl)cc2c1OCCC2`, `COC(=O)CCCc1cc2cc(Cl)ccc2n1S(=O)(=O)c1ccc2c(c1)CCO2` is higher in melting point: 83 to 86 °C for the first, 132 to 137 °C for the second.

Compared with `C=CN(Cc1ccccc1)C(=O)C(F)(F)C(F)(F)C(F)(F)C(F)(F)C(F)(F)C(F)F`, `CC(OC1CN(C(N)=O)C1)c1cccc(C(F)(F)F)c1` (centres undefined) is higher in melting point: 53 to 57 °C for the first, 130 to 132 °C for the second.

Compared with `CC(C)c1cccc(C(C)C)c1NC(=O)CC(=O)CC(c1ccccc1)c1ccccc1`, `N#CCc1c(Cl)nc(-c2ccccc2)n1Cc1ccccc1` is lower in melting point: 146 to 148 °C for the first, 121 to 122 °C for the second.

First: Cc1ccc(C(=O)O)c(Nc2ccc3[nH]ncc3c2)n1
Second: CC(C)(C)NC(=O)Nc1nc2nc(N)ncc2cc1-c1cccc(Cl)c1Cl
The melting point of the first is lower: 252 to 254 °C for the first, 356 to 358 °C for the second.

Going from `O=C1c2ccc([N+](=O)[O-])cc2COc2cc(Nc3ccc(F)cc3[N+](=O)[O-])ccc21` to `COCc1cc(=O)c(Oc2ccc(F)cc2F)c(-c2ccc(S(C)(=O)=O)cc2)o1`, the melting point falls from 211 °C to 124 °C.

First: CCCCCCCNC(=O)N(C)c1cccc(-c2ccc(C=CC(=O)O)c(F)c2)c1
Second: O=C(O)CC(CCCCNS(=O)(=O)c1ccc(Cl)cc1)CCCc1cccnc1 (centres undefined)
The melting point of the first is higher: 148 to 149 °C for the first, 95 to 97 °C for the second.

First: COC(=O)c1ccc2cc(C(=O)c3cc(O)c4c(c3)C(C)(C)CCC4(C)C)ccc2c1
Second: COC(=O)c1ccc(-c2nc(CCl)c(C)o2)cc1
The melting point of the first is higher: 222 °C for the first, 130 to 131 °C for the second.

First: CCc1nn(CCNC(=O)OC(C)(C)C)c(CN)c1Oc1cc(Cl)cc(Cl)c1
Second: CCOC(=O)c1cc2c(C)c(C)cc(N(CC)S(=O)(=O)c3cccs3)c2[nH]1
The melting point of the first is lower: 112 to 114 °C for the first, 134 to 135 °C for the second.

First: COC(=O)c1[nH]c2c(C)ccc(C)c2c1NC(C)=O
Second: Cc1cc2c(c(C)c1NC(=O)CC(C)(C)C)C(c1ccccc1)CO2 (centres undefined)
The melting point of the first is higher: 221 to 222 °C for the first, 158 to 159 °C for the second.

Compared with `CCc1nc2c(C)cc(C)cc2n1-c1ccc(CCNC(=O)NS(=O)(=O)c2ccc(C)cc2)cc1`, `COCCCc1cc(N(C)Cc2ccc(-c3ccc(C(F)(F)F)cc3)nc2)ccc1OCC(=O)O` is lower in melting point: 108 to 112 °C for the first, 72 to 76 °C for the second.

First: CCC12CCC3C4CCC(=O)C=C4CCC3C1C=CC2=O (centres undefined)
Second: CC(=O)NC[C@H]1CN(c2ccc(C3CCOCC3)c(F)c2)C(=O)O1
The melting point of the first is lower: 157 °C for the first, 191 to 192 °C for the second.

Compared with `CNC(=NS(=O)(=O)c1ccc(C(F)(F)F)cc1)N1CC(c2ccccc2)C(c2ccc(Cl)cc2)=N1` (single isomer, unassigned; (-)), `N#Cc1ccccc1C(Cc1ccc(C(F)(F)F)cc1)Cn1cncn1` (centres undefined) is lower in melting point: 157 to 160 °C for the first, 123 °C for the second.

Compared with `COc1cc(N)c(C#N)cc1C(=O)O`, `COc1cc(F)ccc1C(=O)NCCN1CCC(O)(c2ccc(Cl)cc2)CC1` is lower in melting point: 237 °C for the first, 157 °C for the second.

First: CC(C)CC1(C(CCN2C(=O)c3ccc([N+](=O)[O-])cc3C2=O)C(=O)NO)CCN(CCc2ccccc2)C1=O (centres undefined)
Second: Cc1oc(-c2ccccc2)nc1CCc1ccc(/C=C/CO)cc1
The melting point of the first is higher: 161 to 162 °C for the first, 102 to 103 °C for the second.

First: O=C1CNc2ncc(I)cc2N1Cc1cccc(F)c1C(F)(F)F
Second: COc1nc(C(F)(F)F)cc(=O)n1-c1cc(OC(C)C)c(Cl)cc1F
The melting point of the first is higher: over 200 °C for the first, 117 to 119 °C for the second.

Compared with `COc1nc(OC)nc(-n2c(C(F)(F)F)nc3cc(C)ccc32)n1`, `CCOC(=O)c1c(-c2ccc(F)cc2)c2ccccn2c1C(C)C` is lower in melting point: 137 to 140 °C for the first, 99 to 100 °C for the second.

Compared with `Cn1nc(-c2cnc3[nH]cc(C(=O)NC4CCCC4)c3n2)c2ccc(Cl)cc21`, `N#Cc1cnc2cnc(F)cc2c1Oc1ccc(Cl)cc1F` is lower in melting point: 341 to 343 °C for the first, 186 to 188 °C for the second.

First: O=C(O)C1CCc2c(c3ccccc3n2C(=O)c2cccs2)C1 (centres undefined)
Second: O=c1cc(-c2cc3ccccc3cc2O)oc2ccccc12
The melting point of the first is lower: 180 to 182 °C for the first, 202 °C for the second.

First: CC(=O)ON1C(C)(C)NC(=O)C1(C)C
Second: CC(C)Oc1cc2c(cc1O)C(=O)CC(C)(C)O2
The melting point of the first is higher: 188 to 190 °C for the first, 138 to 139 °C for the second.

Compared with `Cc1[nH]c(=O)c(C(N)=O)cc1-c1ccc2nccn2c1`, `CCOC(=O)c1cccn2cc(C)nc12` is lower in melting point: over 300 °C for the first, 62 to 64 °C for the second.

First: O=C(OC1COC1)c1sccc1OS(=O)(=O)Cl
Second: Cc1c(C)c2c(c(C)c1Br)OCC2c1ccc(C(C)C)cc1 (centres undefined)
The melting point of the first is higher: 92 to 94 °C for the first, 56 to 57 °C for the second.

Compared with `CC(CCc1ccc(F)cc1)(Cn1ccnc1)Sc1cc(Cl)ccc1Cl` (centres undefined), `NCCc1c[nH]c2ccc(-c3ccc(F)cc3)cc12` is higher in melting point: 148 °C for the first, over 250 °C for the second.
